Measured values taken from patent US7037495B1, “Antimicrobial compositions” (priority 1999, dated 2006).

Columns and labels:
Type in all cases: cell-based, Escherichia coli
TOP10 E. coli − bcrA = experiment: MIC determination by microtitre broth dilution method, TOP10 E. coli − bcrA; conditions: 24 h at 37° C.
Experimental: (§1) MIC Determination by Microtitre Broth Dilution Method
(§2) TOP10 E. coli with or without (O) bcrA were grown to a concentration of 2×10^4 cfu/ml (bcrA+was grown in the presence of 100 μg/ml ampicillin to select for the pBAD-TOPO vector) in RPMI medium (Sigma) in the presence of 0.002% L-arabinose, as the inducer of the bcrA gene. 100 μl TOP10 E. coli±bcrA was dispensed into 96 well microtitre plate (Sigma) to give a final concentration of 1×10^4 cfu/ml. […] The plates were incubated for 24 h at 37° C. and scored by growth or no growth.

TOP10 E. coli + bcrA [1] = experiment: MIC determination by microtitre broth dilution method, TOP10 E. coli + bcrA; conditions: for Growth of TOP10 E. coli + bcrA: 24 h at 37° C.
Experimental: as §1, §2

TOP10 E. coli + bcrA [2] = experiment: Phage clone activity against resistance of TOP10 E. coli + bcrA to nalidixic acid; conditions: for Nalidixic acid MIC: in the presence of phage (neat and diluted 1:10), TOP10 E. coli + bcrA, 24 h at 37° C.
Experimental: TOP10 E. coli+bcrA were grown to a concentration of 2×10^4 cfu/ml in RPMI medium (Sigma) containing 100 μg/ml ampicillin (to select for the pBAD-TOPO vector) in the presence of 0.002% L-arabinose, as the inducer of the bcrA gene. 100 μl TOP10 E. coli+bcrA, at a final concentration of 1×10^4 cfu/ml, were dispensed into 96 well microtitre plate (Sigma) in the presence of neat phage and phage diluted 1:10 (see table below). Serial doubling dilutions nalidixic acid was added to each well, with the concentration ranging from 128 to 0.25 μg/ml. A control with just the media was set up. The plates were incubated for 24 h at 37° C. Six phage clones were tested.

[3] = TOP10 E. coli + bcrA versus − bcrA

N=C(NCCCCCCNC(=N)NC(=N)Nc1ccc(Cl)cc1)NC(=N)Nc1ccc(Cl)cc1 [Chlorohexadine]
Growth of TOP10 E. coli − bcrA (TOP10 E. coli − bcrA; antibiotic 0.125 μg/ml): + | Growth of TOP10 E. coli − bcrA (TOP10 E. coli − bcrA; antibiotic 0.25 μg/ml): + | Growth of TOP10 E. coli − bcrA (TOP10 E. coli − bcrA; antibiotic 0.5 μg/ml): + | Growth of TOP10 E. coli − bcrA (TOP10 E. coli − bcrA; antibiotic 1 μg/ml): + | Growth of TOP10 E. coli − bcrA (TOP10 E. coli − bcrA; antibiotic 2 μg/ml): + | Growth of TOP10 E. coli − bcrA (TOP10 E. coli − bcrA; antibiotic 4 μg/ml): + | Growth of TOP10 E. coli − bcrA (TOP10 E. coli − bcrA; antibiotic 8 μg/ml): + | Growth of TOP10 E. coli − bcrA (TOP10 E. coli − bcrA; antibiotic 16 μg/ml): − | Growth of TOP10 E. coli − bcrA (TOP10 E. coli − bcrA; antibiotic 32 μg/ml): − | Growth of TOP10 E. coli − bcrA (TOP10 E. coli − bcrA; antibiotic 64 μg/ml): − | Growth of TOP10 E. coli − bcrA (TOP10 E. coli − bcrA; antibiotic 128 μg/ml): − | resistance conferred by the bcrA gene in TOP10 E. coli (TOP10 E. coli + bcrA [1]; [3]): No resistance | Growth of TOP10 E. coli + bcrA (TOP10 E. coli + bcrA [1]; antibiotic 0.125 μg/ml): + | Growth of TOP10 E. coli + bcrA (TOP10 E. coli + bcrA [1]; antibiotic 0.25 μg/ml): + | Growth of TOP10 E. coli + bcrA (TOP10 E. coli + bcrA [1]; antibiotic 0.5 μg/ml): + | Growth of TOP10 E. coli + bcrA (TOP10 E. coli + bcrA [1]; antibiotic 1 μg/ml): + | Growth of TOP10 E. coli + bcrA (TOP10 E. coli + bcrA [1]; antibiotic 2 μg/ml): + | Growth of TOP10 E. coli + bcrA (TOP10 E. coli + bcrA [1]; antibiotic 4 μg/ml): + | Growth of TOP10 E. coli + bcrA (TOP10 E. coli + bcrA [1]; antibiotic 8 μg/ml): + | Growth of TOP10 E. coli + bcrA (TOP10 E. coli + bcrA [1]; antibiotic 16 μg/ml): − | Growth of TOP10 E. coli + bcrA (TOP10 E. coli + bcrA [1]; antibiotic 32 μg/ml): − | Growth of TOP10 E. coli + bcrA (TOP10 E. coli + bcrA [1]; antibiotic 64 μg/ml): − | Growth of TOP10 E. coli + bcrA (TOP10 E. coli + bcrA [1]; antibiotic 128 μg/ml): −

O=C(O)c1cn(C2CC2)c2cc(N3CCNCC3)c(F)cc2c1=O [Ciprofloxacin]
Growth of TOP10 E. coli − bcrA (TOP10 E. coli − bcrA; antibiotic 0.125 μg/ml): + | Growth of TOP10 E. coli − bcrA (TOP10 E. coli − bcrA; antibiotic 0.25 μg/ml): − | Growth of TOP10 E. coli − bcrA (TOP10 E. coli − bcrA; antibiotic 0.5 μg/ml): − | Growth of TOP10 E. coli − bcrA (TOP10 E. coli − bcrA; antibiotic 1 μg/ml): − | Growth of TOP10 E. coli − bcrA (TOP10 E. coli − bcrA; antibiotic 2 μg/ml): − | Growth of TOP10 E. coli − bcrA (TOP10 E. coli − bcrA; antibiotic 4 μg/ml): − | Growth of TOP10 E. coli − bcrA (TOP10 E. coli − bcrA; antibiotic 8 μg/ml): − | Growth of TOP10 E. coli − bcrA (TOP10 E. coli − bcrA; antibiotic 16 μg/ml): − | Growth of TOP10 E. coli − bcrA (TOP10 E. coli − bcrA; antibiotic 32 μg/ml): − | Growth of TOP10 E. coli − bcrA (TOP10 E. coli − bcrA; antibiotic 64 μg/ml): − | Growth of TOP10 E. coli − bcrA (TOP10 E. coli − bcrA; antibiotic 128 μg/ml): − | resistance conferred by the bcrA gene in TOP10 E. coli (TOP10 E. coli + bcrA [1]; [3]): No resistance | Growth of TOP10 E. coli + bcrA (TOP10 E. coli + bcrA [1]; antibiotic 0.125 μg/ml): + | Growth of TOP10 E. coli + bcrA (TOP10 E. coli + bcrA [1]; antibiotic 0.25 μg/ml): − | Growth of TOP10 E. coli + bcrA (TOP10 E. coli + bcrA [1]; antibiotic 0.5 μg/ml): − | Growth of TOP10 E. coli + bcrA (TOP10 E. coli + bcrA [1]; antibiotic 1 μg/ml): − | Growth of TOP10 E. coli + bcrA (TOP10 E. coli + bcrA [1]; antibiotic 2 μg/ml): − | Growth of TOP10 E. coli + bcrA (TOP10 E. coli + bcrA [1]; antibiotic 4 μg/ml): − | Growth of TOP10 E. coli + bcrA (TOP10 E. coli + bcrA [1]; antibiotic 8 μg/ml): − | Growth of TOP10 E. coli + bcrA (TOP10 E. coli + bcrA [1]; antibiotic 16 μg/ml): − | Growth of TOP10 E. coli + bcrA (TOP10 E. coli + bcrA [1]; antibiotic 32 μg/ml): − | Growth of TOP10 E. coli + bcrA (TOP10 E. coli + bcrA [1]; antibiotic 64 μg/ml): − | Growth of TOP10 E. coli + bcrA (TOP10 E. coli + bcrA [1]; antibiotic 128 μg/ml): −

CCn1cc(C(=O)O)c(=O)c2ccc(C)nc21 [Nalidixic Acid]
MIC (TOP10 E. coli + bcrA [2]; Escherichia coli, 24 h, read-out: Nalidixic acid MIC): 16 µg/mL | Growth of TOP10 E. coli − bcrA (TOP10 E. coli − bcrA; antibiotic 0.125 μg/ml): + | Growth of TOP10 E. coli − bcrA (TOP10 E. coli − bcrA; antibiotic 0.25 μg/ml): + | Growth of TOP10 E. coli − bcrA (TOP10 E. coli − bcrA; antibiotic 0.5 μg/ml): + | Growth of TOP10 E. coli − bcrA (TOP10 E. coli − bcrA; antibiotic 1 μg/ml): + | Growth of TOP10 E. coli − bcrA (TOP10 E. coli − bcrA; antibiotic 2 μg/ml): + | Growth of TOP10 E. coli − bcrA (TOP10 E. coli − bcrA; antibiotic 4 μg/ml): − | Growth of TOP10 E. coli − bcrA (TOP10 E. coli − bcrA; antibiotic 8 μg/ml): − | Growth of TOP10 E. coli − bcrA (TOP10 E. coli − bcrA; antibiotic 16 μg/ml): − | Growth of TOP10 E. coli − bcrA (TOP10 E. coli − bcrA; antibiotic 32 μg/ml): − | Growth of TOP10 E. coli − bcrA (TOP10 E. coli − bcrA; antibiotic 64 μg/ml): − | Growth of TOP10 E. coli − bcrA (TOP10 E. coli − bcrA; antibiotic 128 μg/ml): − | difference in MIC in TOP10 E. coli ± bcrA (TOP10 E. coli + bcrA [1]; TOP10 E. coli + bcrA versus − bcrA, doubling dilutions): three well difference | Growth of TOP10 E. coli + bcrA (TOP10 E. coli + bcrA [1]; antibiotic 0.125 μg/ml): + | Growth of TOP10 E. coli + bcrA (TOP10 E. coli + bcrA [1]; antibiotic 0.25 μg/ml): + | Growth of TOP10 E. coli + bcrA (TOP10 E. coli + bcrA [1]; antibiotic 0.5 μg/ml): + | Growth of TOP10 E. coli + bcrA (TOP10 E. coli + bcrA [1]; antibiotic 1 μg/ml): + | Growth of TOP10 E. coli + bcrA (TOP10 E. coli + bcrA [1]; antibiotic 2 μg/ml): + | Growth of TOP10 E. coli + bcrA (TOP10 E. coli + bcrA [1]; antibiotic 4 μg/ml): + | Growth of TOP10 E. coli + bcrA (TOP10 E. coli + bcrA [1]; antibiotic 8 μg/ml): + | Growth of TOP10 E. coli + bcrA (TOP10 E. coli + bcrA [1]; antibiotic 16 μg/ml): − | Growth of TOP10 E. coli + bcrA (TOP10 E. coli + bcrA [1]; antibiotic 32 μg/ml): − | Growth of TOP10 E. coli + bcrA (TOP10 E. coli + bcrA [1]; antibiotic 64 μg/ml): − | Growth of TOP10 E. coli + bcrA (TOP10 E. coli + bcrA [1]; antibiotic 128 μg/ml): −

CN(C)[C@@H]1C(O)=C(C(N)=O)C(=O)[C@@]2(O)C(O)=C3C(=O)c4c(O)cccc4[C@@](C)(O)[C@H]3C[C@@H]12 [Tetracycline]
Growth of TOP10 E. coli − bcrA (TOP10 E. coli − bcrA; antibiotic 0.125 μg/ml): + | Growth of TOP10 E. coli − bcrA (TOP10 E. coli − bcrA; antibiotic 0.25 μg/ml): + | Growth of TOP10 E. coli − bcrA (TOP10 E. coli − bcrA; antibiotic 0.5 μg/ml): + | Growth of TOP10 E. coli − bcrA (TOP10 E. coli − bcrA; antibiotic 1 μg/ml): + | Growth of TOP10 E. coli − bcrA (TOP10 E. coli − bcrA; antibiotic 2 μg/ml): + | Growth of TOP10 E. coli − bcrA (TOP10 E. coli − bcrA; antibiotic 4 μg/ml): − | Growth of TOP10 E. coli − bcrA (TOP10 E. coli − bcrA; antibiotic 8 μg/ml): − | Growth of TOP10 E. coli − bcrA (TOP10 E. coli − bcrA; antibiotic 16 μg/ml): − | Growth of TOP10 E. coli − bcrA (TOP10 E. coli − bcrA; antibiotic 32 μg/ml): − | Growth of TOP10 E. coli − bcrA (TOP10 E. coli − bcrA; antibiotic 64 μg/ml): − | Growth of TOP10 E. coli − bcrA (TOP10 E. coli − bcrA; antibiotic 128 μg/ml): − | Growth of TOP10 E. coli + bcrA (TOP10 E. coli + bcrA [1]; antibiotic 0.125 μg/ml): + | Growth of TOP10 E. coli + bcrA (TOP10 E. coli + bcrA [1]; antibiotic 0.25 μg/ml): + | Growth of TOP10 E. coli + bcrA (TOP10 E. coli + bcrA [1]; antibiotic 0.5 μg/ml): + | Growth of TOP10 E. coli + bcrA (TOP10 E. coli + bcrA [1]; antibiotic 1 μg/ml): + | Growth of TOP10 E. coli + bcrA (TOP10 E. coli + bcrA [1]; antibiotic 2 μg/ml): + | Growth of TOP10 E. coli + bcrA (TOP10 E. coli + bcrA [1]; antibiotic 4 μg/ml): + | Growth of TOP10 E. coli + bcrA (TOP10 E. coli + bcrA [1]; antibiotic 8 μg/ml): − | Growth of TOP10 E. coli + bcrA (TOP10 E. coli + bcrA [1]; antibiotic 16 μg/ml): − | Growth of TOP10 E. coli + bcrA (TOP10 E. coli + bcrA [1]; antibiotic 32 μg/ml): − | Growth of TOP10 E. coli + bcrA (TOP10 E. coli + bcrA [1]; antibiotic 64 μg/ml): − | Growth of TOP10 E. coli + bcrA (TOP10 E. coli + bcrA [1]; antibiotic 128 μg/ml): −

AIISFGFMAFFGSVV [Peptide 1]
Nalidixic acid MIC (TOP10 E. coli + bcrA [2]): 2 µg/mL

HRLDRMVASFAFHR [Peptide 3]
Nalidixic acid MIC (TOP10 E. coli + bcrA [2]): 8 µg/mL

SVVIFPLWQTVMGYT [Peptide 2]
Nalidixic acid MIC (TOP10 E. coli + bcrA [2]): 16 µg/mL
